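Tested at 5 concentrations; 48 h exposure; 96-well plates; endpoints linearly interpolated, else capped at highest concentration. GI50 is the concentration that inhibits growth by half. TGI: concentration producing complete growth inhibition.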

Some test systems named below: MDA-N; RXF-631 renal; M19-MEL melanoma; HOP-18 NSCLC; DMS 114 small cell lung; DLD-1 colon; KM20L2 colon; LXFL 529 NSCLC; DMS 273 small cell lung; P388/ADR leukemia; P388 leukemia.
Assay in all cases: NCI tumour cell line growth inhibition, 48 h

As for `CN(C)c1cccc(NC2=NCCO2)c1`, the TGI with MDA-N was determined as 32.8 µM.

In the experiment with MDA-N, `CC1=NC(=Cc2ccc([N+](=O)[O-])cc2)C(=O)N1n1c(-c2ccccc2)nc2ccccc2c1=O` registered a TGI of more than 100 µM.

On to `Cn1nc(-c2ccccc2)c2c(/C=C/c3ccccc3)onc2c1=O`, for which the TGI in the experiment with RXF-631 renal, in the experiment with M19-MEL melanoma, in the experiment with HOP-18 NSCLC, in the experiment on DMS 114 small cell lung, with DLD-1 colon and in the experiment on KM20L2 colon was more than 100 µM in each case. The TGI in the experiment with LXFL 529 NSCLC is more than 100 µM.

Regarding `CC1=C(C(=O)Nc2ccc(Cl)c(C(=O)OC(C)C)c2)SCCO1`, the TGI was 73.1 µM in the experiment with DMS 273 small cell lung; 75.5 µM in the experiment on M19-MEL melanoma; more than 100 µM with HOP-18 NSCLC; 46.4 µM in the experiment on P388/ADR leukemia; 54.2 µM in the experiment with P388 leukemia; more than 79.4 µM with DLD-1 colon. In addition, the TGI in the experiment with KM20L2 colon was 73.9 µM.

For the compound `CC1=C(C(=O)Nc2cc(F)c(F)cc2F)C(c2ccc([N+](=O)[O-])cc2)C(C(=O)Nc2cc(F)c(F)cc2F)=C(C)N1`, the TGI in the experiment with M19-MEL melanoma, in the experiment on DMS 114 small cell lung, with DLD-1 colon, in the experiment with KM20L2 colon and in the experiment with LXFL 529 NSCLC was more than 100 µM throughout.

Consider `NS(=O)(=O)OCCCCCCCOS(N)(=O)=O`, for which the TGI stood at 454 µM with DMS 273 small cell lung; 1300 µM in the experiment with M19-MEL melanoma; 2350 µM in the experiment with HOP-18 NSCLC; 2060 µM with P388/ADR leukemia; 669 µM in the experiment with DMS 114 small cell lung; 1300 µM in the experiment on P388 leukemia. Further, the values for the TGI in the experiment on DLD-1 colon, in the experiment with KM20L2 colon and in the experiment with MDA-N were 1540 µM, 1470 µM and 1210 µM, respectively.

Regarding `CCSc1c2ccccc2c(-c2nc(F)nc(F)n2)n1CCc1ccccc1`, the TGI with RXF-631 renal, with DMS 273 small cell lung, with M19-MEL melanoma, with DMS 114 small cell lung, with KM20L2 colon and in the experiment on LXFL 529 NSCLC was more than 100 µM in each case.

With `COc1cccc(-c2cc(=O)c3ccccc3[nH]2)c1`, the TGI was more than 100 µM in the experiment with DMS 273 small cell lung; more than 100 µM in the experiment on M19-MEL melanoma; more than 100 µM in the experiment on HOP-18 NSCLC; more than 59.3 µM with DMS 114 small cell lung; more than 100 µM in the experiment on DLD-1 colon; 27.1 µM with KM20L2 colon. Besides, the TGI in the experiment on LXFL 529 NSCLC is more than 100 µM.

Regarding `CC1(c2ccc(Cl)cc2)C2C(=O)NC(=O)C1C(=O)NC2=O` (stereo unspecified), the TGI in the experiment on DMS 273 small cell lung, with M19-MEL melanoma, in the experiment with DLD-1 colon, in the experiment on KM20L2 colon and in the experiment with LXFL 529 NSCLC was more than 100 µM in each case.

With `CSc1ccc2c(c1)C(N1CCN(C)CC1)Cc1ccccc1S2` (stereo unspecified), the TGI with MDA-N came out at 12.1 µM.

`CN1c2ccccc2N(C(=O)c2ccccc2)C(CC(=O)O)c2cccn21` (stereo unspecified): the TGI with RXF-631 renal, in the experiment on DMS 273 small cell lung, with M19-MEL melanoma, in the experiment with HOP-18 NSCLC, with DMS 114 small cell lung and with KM20L2 colon was more than 100 µM each time. The compound also displayed a TGI with LXFL 529 NSCLC of more than 100 µM.

In the experiment with MDA-N, `COC(=O)CSSCc1ccc([N+](=O)[O-])cc1` showed a TGI of 34.7 µM.

Regarding `CC(=O)O[C@H]1CC[C@@]2(C)C(=CC[C@@H]3C2CC[C@]2(C)Nc4nc5ccccc5cc4CC32)C1` (stereo partly specified), the TGI in the experiment on DMS 273 small cell lung stood at 13.8 µM; in the experiment on M19-MEL melanoma it was 12.2 µM; in the experiment on HOP-18 NSCLC, 13.5 µM; in the experiment on DMS 114 small cell lung it was 18 µM; with DLD-1 colon, 15.6 µM; in the experiment with KM20L2 colon, 3.66 µM. The TGI in the experiment with LXFL 529 NSCLC came to 12 µM.

Consider `Brc1ccc2ns[s+]c2c1`, for which the TGI in the experiment with RXF-631 renal, in the experiment with DMS 273 small cell lung, with M19-MEL melanoma, with HOP-18 NSCLC, with DMS 114 small cell lung and in the experiment on KM20L2 colon was more than 100 µM throughout. In the experiment with LXFL 529 NSCLC, this compound came in with a TGI of more than 100 µM.

Regarding `C=CCOCn1cc(C)c(=O)[nH]c1=O`, the TGI in the experiment with MDA-N is more than 100 µM.

Consider `CCOc1ccc(NC(=O)CC2C(=O)Nc3ccccc3S2(=O)=O)cc1` (stereo unspecified), for which the TGI with RXF-631 renal, with M19-MEL melanoma, with HOP-18 NSCLC, in the experiment with DMS 114 small cell lung, in the experiment on DLD-1 colon and with KM20L2 colon was more than 100 µM in each case. For the same compound, in the experiment with LXFL 529 NSCLC, the TGI was more than 100 µM.

Take `Nc1c(Cl)ncnc1NCCCNc1ncnc(Cl)c1N`: the TGI with DMS 273 small cell lung, with M19-MEL melanoma, with HOP-18 NSCLC, in the experiment with DMS 114 small cell lung, with DLD-1 colon and in the experiment on KM20L2 colon was more than 100 µM each time. Further, the TGI in the experiment on LXFL 529 NSCLC was more than 100 µM.

Consider `O=C(NNc1ccccc1)/C(=C/c1ccc2c(c1)OCO2)NC(=O)c1ccccc1`, for which the TGI with DMS 273 small cell lung, in the experiment with HOP-18 NSCLC, in the experiment with DLD-1 colon, in the experiment on KM20L2 colon and in the experiment on LXFL 529 NSCLC was more than 100 µM each time.

Turning to `NC(=O)NC1C(C(N)=O)N(Cc2ccccc2)C(=O)N1Cc1ccccc1` (stereo unspecified), the TGI in the experiment with RXF-631 renal, with DMS 273 small cell lung, in the experiment on M19-MEL melanoma, in the experiment with HOP-18 NSCLC, in the experiment on DMS 114 small cell lung and in the experiment on DLD-1 colon was more than 100 µM each time. Moreover, the TGI in the experiment with KM20L2 colon and with LXFL 529 NSCLC was more than 100 µM each time.

For `COc1ccc(/C=C/C(=O)c2sc(-n3nc(-c4ccccc4)cc3-c3ccccc3)nc2C)cc1`, the GI50 in the experiment with RXF-631 renal, with M19-MEL melanoma, in the experiment on HOP-18 NSCLC, in the experiment with DLD-1 colon and in the experiment on LXFL 529 NSCLC was more than 100 µM throughout. Further, the TGI in the experiment on RXF-631 renal, in the experiment on M19-MEL melanoma, with HOP-18 NSCLC, in the experiment on DMS 114 small cell lung, with DLD-1 colon and in the experiment with KM20L2 colon was more than 100 µM each time. Moreover, the TGI in the experiment on LXFL 529 NSCLC was more than 100 µM.

Source of the values: PubChem BioAssay (NCI).
